Literature values, collected in patent US8062679B2, “Composition for maintaining androgen and androgen-like uptake potential by cells” (Northern Innovations and Formulations Corp., priority 2007, dated 2011).
Read-outs that look alike come from different tables or passages of the source.

Key:
aromatase = target: T1, aromatase (Homo sapiens, UniProt P11511)
T1 sequence (P11511 1-503): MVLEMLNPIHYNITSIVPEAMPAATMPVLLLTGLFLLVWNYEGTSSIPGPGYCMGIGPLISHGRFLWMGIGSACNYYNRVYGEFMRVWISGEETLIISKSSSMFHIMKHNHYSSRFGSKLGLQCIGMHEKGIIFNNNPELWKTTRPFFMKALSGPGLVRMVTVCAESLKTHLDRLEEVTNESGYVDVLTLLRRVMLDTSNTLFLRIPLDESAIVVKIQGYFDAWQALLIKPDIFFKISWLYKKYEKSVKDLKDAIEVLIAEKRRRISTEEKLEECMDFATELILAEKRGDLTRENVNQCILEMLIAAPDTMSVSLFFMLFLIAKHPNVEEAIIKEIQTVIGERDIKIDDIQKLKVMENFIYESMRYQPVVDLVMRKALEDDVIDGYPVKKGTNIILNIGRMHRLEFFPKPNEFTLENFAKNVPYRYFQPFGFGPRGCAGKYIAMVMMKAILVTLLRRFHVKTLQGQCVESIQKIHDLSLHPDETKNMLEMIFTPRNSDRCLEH

[1] = prolonged L-carnitine administration
[2] = human blood
lutenizing hormone (LH) = conditions: after exercise, animals
[3] = test system: mitochondrial permeability transition
[4] = three weeks, equivalent of 2 g elemental carnitine per day; cross-over, placebo controlled
[5] = fights ROS under low oxygen tension
GH [6] = conditions: oral, both 0.5 mg and 5.0 mg
GH [7] = test system: GH
GH [8] = test system: GH; remark: listed apart in the source

CCCCC/C=C\C/C=C\CCCCCCCC(=O)O [linoleic]
aromatase activity (aromatase): efficient suppressors

C[N+](C)(C)C[C@H](O)CC(=O)[O-] [L-carnitine]
pain and damage from eccentric muscular effort [1]: protective effect

COC1=C(OC)C(=O)C(C/C=C(\C)CC/C=C(\C)CC/C=C(\C)CC/C=C(\C)CC/C=C(\C)CC/C=C(\C)CC/C=C(\C)CC/C=C(\C)CC/C=C(\C)CCC=C(C)C)=C(C)C1=O [CoQ10, ubidecarenone]
antioxidant activity [2]: potent antioxidant | exercise duration (individuals suffering from angina, vs untreated groups): able to exercise for longer periods | myocardial function (patients with disease conditions involving energy production deficits): improved

CC(C)=CCC[C@](C)(O[C@@H]1O[C@H](CO[C@@H]2O[C@H](CO)[C@@H](O)[C@H](O)[C@H]2O)[C@@H](O)[C@H](O)[C@H]1O)[C@H]1CC[C@]2(C)[C@@H]1[C@H](O)C[C@@H]1[C@@]3(C)CC[C@H](O[C@@H]4O[C@H](CO)[C@@H](O)[C@H](O)[C@H]4O[C@@H]4O[C@H](CO)[C@@H](O)[C@H](O)[C@H]4O)C(C)(C)[C@@H]3CC[C@]12C [Ginsenoside Rb1]
secretion of lutenizing hormone (LH) (lutenizing hormone (LH)): stimulate the secretion

CCCCCCCCCCC1=C(C)C(=O)C(OC)=C(OC)C1=O [Decylubiquinone]
redox-dependent mitochondrial permeability transition [3]: effectively block

C[N+](C)(C)C[C@H](O)CC(=O)[O-].O=C(O)C(O)C(O)C(=O)O [LCLT, L-carnitine L-tartrate]
muscle damage produced by an acute bout of high-intensity resistance exercise [4]: reduce muscle damage

CC/C=C\C/C=C\C/C=C\CCCCCCCC(=O)O [linolenic]
aromatase activity (aromatase): efficient suppressors

COC1=C(OC)C(=O)C(CCCCCCCCCCO)=C(C)C1=O [Idebenone]
antioxidant activity [5]: potent antioxidant

conjugated linoleic acids
aromatase activity (aromatase): efficient suppressors

COc1ccc2[nH]cc(CCNC(C)=O)c2c1 [melatonin, N-Acetyl-5-methoxytryptamine]
plasma GH concentrations (GH [6]): significant increase | time of peak plasma GH (GH [6]): 60 min | serum free GH following a single bout of heavy-resistance exercise (GH [7]; 0.5 and 5.0 mg, weight-trained young males): significantly more effective than placebo | serum IGFBP-3 (GH [7]; pre- and post-exercise periods): notable increases | GH, area under the curve (GH [8]; 5.0 mg orally 60 minutes prior to bicycle exercise at 70% VO2max, vs placebo): significant increases | time of GH peak following exercise (GH [8]; 5.0 mg orally 60 minutes prior to exercise): 30 min
